Consider 19 molecules from patent US9108944B2, “Androgen receptor modulators and uses thereof” (ARAGON PHARMACEUTICALS, INC., priority 2010, dated 2015).

For experiment [1], the target named is T1, AR-VP16 (Homo sapiens, UniProt P10275).
T1 sequence (P10275 560-920 limits assumed): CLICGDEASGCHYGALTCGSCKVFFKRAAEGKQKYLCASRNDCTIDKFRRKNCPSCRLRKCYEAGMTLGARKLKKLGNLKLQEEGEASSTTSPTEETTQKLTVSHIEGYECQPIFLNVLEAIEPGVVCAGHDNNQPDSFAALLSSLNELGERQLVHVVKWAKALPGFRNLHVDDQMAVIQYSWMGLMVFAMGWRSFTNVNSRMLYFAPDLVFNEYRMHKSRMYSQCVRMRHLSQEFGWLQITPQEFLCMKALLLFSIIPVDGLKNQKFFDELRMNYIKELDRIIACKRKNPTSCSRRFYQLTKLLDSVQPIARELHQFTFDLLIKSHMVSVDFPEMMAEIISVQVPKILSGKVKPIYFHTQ
Put plainly: AR-VP16 DNA Binding Assay, agonist mode (HepG2 cells). Type of experiment: cell-based. The note with it: Emax >20x DMSO control = agonist.

Experiment [2] concerns the target T1, AR-VP16. In words: AR-VP16 DNA Binding Assay, antagonist mode (HepG2 cells, 0.1 nM R1881). The format is cell-based. The essentials: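 HepG2 cells transiently transfected with AR-VP16 (Lipofectin), incubated overnight, then treated with compound in RPMI with charcoal-stripped serum. Antagonist mode adds R1881 at 0.1 nM final. Cells lysed after 48 h incubation for read-out.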

As to `N#Cc1ncc(N2C(=O)C3(CCC3)N(c3ccc(F)c(C(=O)NCCc4ccncc4)c3)C2=S)cc1C(F)(F)F` [Compound 241, 5-(7-(6-Cyano-5-(trifluoromethyl)pyridin-3-yl)-8-oxo-6-thioxo-5,7-diazaspiro[3.4]octan-5-yl)-2-fluoro-N-(2-(pyridin-4-yl)ethyl)benzamide], the “ARVP16 DNA Binding Assay (Agonist mode): Agonist?” value (shortened to “ARVP16 DNA Binding Assay”) at AR-VP16 [1] was “No (Agonist defined as a compound whose Emax in the ARVP16 DNA Binding Assay (Agonist mode) is >20x DMSO control)”. The IC50 (in general, the point on the concentration scale where inhibition reaches its midpoint) on AR-VP16 [2] was greater than 1000 nM.
The like results for `CS(=O)(=O)N1CCC(Oc2ccc(N3C(=S)N(c4cnc(C#N)c(C(F)(F)F)c4)C(=O)C34CCC4)cc2)CC1` [Compound 219, 5-(5-(4-((1-(methylsulfonyl)piperidin-4-yl)oxy)phenyl)-8-oxo-6-thioxo-5,7-diazaspiro[3.4]octan-7-yl)-3-(trifluoromethyl)picolinonitrile] were, in that order, “Yes (Agonist defined as a compound whose Emax in the ARVP16 DNA Binding Assay (Agonist mode) is >20x DMSO control)” and less than 1000 nM.
Regarding `N#Cc1ncc(N2C(=O)C3(CCC3)N(c3ccc(C(F)(F)F)cc3)C2=S)cc1C(F)(F)F` [Compound 46, 5-(8-Oxo-6-thioxo-5-(4-(trifluoromethyl)phenyl)-5,7-diazaspiro[3.4]octan-7-yl)-3-(trifluoromethyl)picolinonitrile], at AR-VP16 [1], the “ARVP16 DNA Binding Assay” value is listed as “No (Agonist defined as a compound whose Emax in the ARVP16 DNA Binding Assay (Agonist mode) is >20x DMSO control)”. This molecule returned an IC50 on AR-VP16 [2] of less than 1000 nM.
On the same counts, the results for `Cc1ccc(-c2ccc(N3C(=S)N(c4cnc(C#N)c(C)c4)C(=O)C34CCC4)cc2)o1` [Compound 7, 3-Methyl-5-(5-(4-(5-methylfuran-2-yl)phenyl)-8-oxo-6-thioxo-5,7-diazaspiro[3.4]octan-7-yl)picolinonitrile] are “No (Agonist defined as a compound whose Emax in the ARVP16 DNA Binding Assay (Agonist mode) is >20x DMSO control)” and less than 1000 nM.
The like results for `COCCN(C)C(=O)c1ccc(N2C(=S)N(c3cnc(C#N)c(C(F)(F)F)c3)C(=O)C23CCC3)cc1F` [Compound 250, 4-(7-(6-Cyano-5-(trifluoromethyl)pyridin-3-yl)-8-oxo-6-thioxo-5,7-diazaspiro[3.4]octan-5-yl)-2-fluoro-N-(2-methoxyethyl)-N-methylbenzamide] were, in that order, “No (Agonist defined as a compound whose Emax in the ARVP16 DNA Binding Assay (Agonist mode) is >20x DMSO control)” and greater than 1000 nM.
On the same counts, the results for `CN1CCN(c2ccc(N3C(=S)N(c4cnc(C#N)c(C(F)(F)F)c4)C(=O)C34CCC4)cc2)CC1` [Compound 90, 5-(5-(4-(4-Methylpiperazin-1-yl)phenyl)-8-oxo-6-thioxo-5,7-diazaspiro[3.4]octan-7-yl)-3-(trifluoromethyl)picolinonitrile] are “No (Agonist defined as a compound whose Emax in the ARVP16 DNA Binding Assay (Agonist mode) is >20x DMSO control)” and greater than 1000 nM.
Turning to `NC(=O)c1ncc(N2C(=O)C3(CCC3)N(c3ccc(F)c(C(=O)O)c3)C2=S)cc1C(F)(F)F` [Compound 229, 5-(7-(6-Carbamoyl-5-(trifluoromethyl)pyridin-3-yl)-8-oxo-6-thioxo-5,7-diazaspiro[3.4]octan-5-yl)-2-fluorobenzoic acid], the “ARVP16 DNA Binding Assay” value on AR-VP16 [1] is reported as “No (Agonist defined as a compound whose Emax in the ARVP16 DNA Binding Assay (Agonist mode) is >20x DMSO control)”. On AR-VP16 [2], the IC50 is less than 1000 nM.
The like results for `CCCCNC(=O)c1ccc(N2C(=S)N(c3cnc(C#N)c(C(F)(F)F)c3)C(=O)C23CCC3)cc1F` [Compound 277, N-Butyl-4-(7-(6-cyano-5-(trifluoromethyl)pyridin-3-yl)-8-oxo-6-thioxo-5,7-diazaspiro[3.4]octan-5-yl)-2-fluorobenzamide] were, in that order, “No (Agonist defined as a compound whose Emax in the ARVP16 DNA Binding Assay (Agonist mode) is >20x DMSO control)” and less than 1000 nM.
On the same counts, the results for `N#Cc1ncc(N2C(=O)C3(CCC3)N(c3ccc(F)c(OCCc4ccncc4)c3)C2=S)cc1C(F)(F)F` [Compound 160, 5-(5-(4-Fluoro-3-(2-(pyridin-4-yl)ethoxy)phenyl)-8-oxo-6-thioxo-5,7-diazaspiro[3.4]octan-7-yl)-3-(trifluoromethyl)picolinonitrile] are “No (Agonist defined as a compound whose Emax in the ARVP16 DNA Binding Assay (Agonist mode) is >20x DMSO control)” and greater than 1000 nM.
Consider `N#Cc1ncc(N2C(=O)C3(CCC3)N(c3ccc(F)c(OCCCc4ccccc4)c3)C2=S)cc1C(F)(F)F` [Compound 163, 5-(5-(4-Fluoro-3-(3-phenylpropoxy)phenyl)-8-oxo-6-thioxo-5,7-diazaspiro[3.4]octan-7-yl)-3-(trifluoromethyl)picolinonitrile], for which the “ARVP16 DNA Binding Assay” value at AR-VP16 [1] is given as “No (Agonist defined as a compound whose Emax in the ARVP16 DNA Binding Assay (Agonist mode) is >20x DMSO control)”. The molecule also yielded an IC50 at AR-VP16 [2] greater than 1000 nM.
On the same counts, the results for `Cc1cc(N2C(=O)C3(CCC3)N(c3ccc(C(=O)Nc4ccn(C)n4)c(F)c3)C2=S)cnc1C#N` [Compound 303, 4-(7-(6-Cyano-5-methylpyridin-3-yl)-8-oxo-6-thioxo-5,7-diazaspiro[3.4]octan-5-yl)-2-fluoro-N-(1-methyl-1H-pyrazol-3-yl)benzamide] are “No (Agonist defined as a compound whose Emax in the ARVP16 DNA Binding Assay (Agonist mode) is >20x DMSO control)” and greater than 1000 nM.
The like results for `O=C1N(c2ccc3nnc(C(F)(F)F)n3n2)C(=S)N(c2ccc(O)c(F)c2)C12CCC2` [Compound 117, 5-(3-Fluoro-4-hydroxyphenyl)-6-thioxo-7-(3-(trifluoromethyl)-[1,2,4]triazolo[4,3-b]pyridazin-6-yl)-5,7-diazaspiro[3.4]octan-8-one] were, in that order, “No (Agonist defined as a compound whose Emax in the ARVP16 DNA Binding Assay (Agonist mode) is >20x DMSO control)” and greater than 1000 nM.
The like results for `N#Cc1ncc(N2C(=O)C3(CCC3)N(c3ccc(F)c(C(=O)NCCN4CCOCC4)c3)C2=S)cc1C(F)(F)F` [Compound 253, 5-(7-(6-Cyano-5-(trifluoromethyl)pyridin-3-yl)-8-oxo-6-thioxo-5,7-diazaspiro[3.4]octan-5-yl)-2-fluoro-N-(2-morpholinoethyl)benzamide] were, in that order, “No (Agonist defined as a compound whose Emax in the ARVP16 DNA Binding Assay (Agonist mode) is >20x DMSO control)” and greater than 1000 nM.
Regarding `Cc1cc(N2C(=O)C3(CCC3)N(c3ccc(OCCc4ccccn4)c(F)c3)C2=S)cnc1C#N` [Compound 169, 5-(5-(3-Fluoro-4-(2-(pyridin-2-yl)ethoxy)phenyl)-8-oxo-6-thioxo-5,7-diazaspiro[3.4]octan-7-yl)-3-methylpicolinonitrile], the “ARVP16 DNA Binding Assay” value at AR-VP16 [1] is on record as “No (Agonist defined as a compound whose Emax in the ARVP16 DNA Binding Assay (Agonist mode) is >20x DMSO control)”. Also, the half-inhibitory concentration (IC50) at AR-VP16 [2] is less than 1000 nM.
Take `N#Cc1ncc(N2C(=O)C3(CCC3)N(c3ccc(C4CCOCC4)cc3)C2=S)cc1C(F)(F)F` [Compound 115, 5-(8-Oxo-5-(4-(tetrahydro-2H-pyran-4-yl)phenyl)-6-thioxo-5,7-diazaspiro[3.4]octan-7-yl)-3-(trifluoromethyl)picolinonitrile]: on AR-VP16 [1], the “ARVP16 DNA Binding Assay” value is “No (Agonist defined as a compound whose Emax in the ARVP16 DNA Binding Assay (Agonist mode) is >20x DMSO control)”. The molecule also registered an IC50 on AR-VP16 [2] of less than 1000 nM.
On the same counts, the results for `N#Cc1ncc(N2C(=O)C3(CCC3)N(c3ccc(F)c(O)c3)C2=S)cc1C(F)(F)F` [Compound 123, 5-(5-(4-Fluoro-3-hydroxyphenyl)-8-oxo-6-thioxo-5,7-diazaspiro[3.4]octan-7-yl)-3-(trifluoromethyl)picolinonitrile] are “No (Agonist defined as a compound whose Emax in the ARVP16 DNA Binding Assay (Agonist mode) is >20x DMSO control)” and greater than 1000 nM.
`Cc1ccc(N2C(=S)N(c3cnc(C#N)c(C(F)(F)F)c3)C(=O)C2(C)C)cc1` [Compound 33, 5-(4,4-Dimethyl-5-oxo-2-thioxo-3-(p-tolyl)imidazolidin-1-yl)-3-(trifluoromethyl)picolinonitrile]: the “ARVP16 DNA Binding Assay” value on AR-VP16 [1] is on record as “No (Agonist defined as a compound whose Emax in the ARVP16 DNA Binding Assay (Agonist mode) is >20x DMSO control)”. The IC50 on AR-VP16 [2] was less than 1000 nM.
For the molecule `N#Cc1ncc(N2C(=O)C3(CCC3)N(c3ccc(C(=O)NCc4cnccn4)c(F)c3)C2=S)cc1C(F)(F)F` [Compound 290, 4-(7-(6-Cyano-5-(trifluoromethyl)pyridin-3-yl)-8-oxo-6-thioxo-5,7-diazaspiro[3.4]octan-5-yl)-2-fluoro-N-(pyrazin-2-ylmethyl)benzamide], the “ARVP16 DNA Binding Assay” value at AR-VP16 [1] was “No (Agonist defined as a compound whose Emax in the ARVP16 DNA Binding Assay (Agonist mode) is >20x DMSO control)”. The IC50 on AR-VP16 [2] is less than 1000 nM.
As to `N#Cc1ncc(N2C(=O)C3(CCC3)N(c3ccc(OCCc4cccc5ccccc45)c(F)c3)C2=S)cc1C(F)(F)F` [Compound 140, 5-(5-(3-Fluoro-4-(2-(naphthalen-1-yl)ethoxy)phenyl)-8-oxo-6-thioxo-5,7-diazaspiro[3.4]octan-7-yl)-3-(trifluoromethyl)picolinonitrile], the “ARVP16 DNA Binding Assay” value on AR-VP16 [1] is on record as “No (Agonist defined as a compound whose Emax in the ARVP16 DNA Binding Assay (Agonist mode) is >20x DMSO control)”. On AR-VP16 [2], this molecule gave a 50% inhibitory concentration (IC50) greater than 1000 nM.
